We go through 5 molecules from patent publication US20090176743A1 (priority 2005, published 2009).

One test concerns ICP0^− virus (n212). Format: cell-based, HSV-1. The settings on record: for effect of deprivation/refeeding on plating efficiency of ICP0- virus: 42 h in medium lacking the amino acid, normal medium 9 h, then n212 (FIG. 9); for effect of combined arginine and methionine deprivation on plating efficiency of ICP0- virus: three days in media containing all combinations of arginine, methionine and glutamine (FIG. 15). The protocol: Like isoleucine deprivation, serum starvation is a method commonly used to synchronize cells to G1 phase of the cell cycle. We then replaced the media with normal growth medium, infected cells with wild type (KOS) or ICP0^− virus (n212), and analyzed cells for cellular DNA content at 3-h intervals (FIG. 7).
We infected the monolayers with an ICP0^− virus (n212) 9 h after the addition of normal medium (FIG. 8).
Media were replaced with normal growth medium, and after a 9-h incubation, monolayers were infected with ICP0^− (n212).
Cells were then infected with wild type or ICPO-virus to determine plating efficiency as described herein. […] In order to determine the role of isoleucine in these experiments, monolayers of cells were incubated for 42 hours in normal medium (Gln+ Ile+) or media lacking Ile, Gln, or both. Cells were then infected with wild type or ICP0^− virus to determine plating efficiency as described herein.
For these experiments, monolayers were incubated for 1-5 days in the absence of each of the 15 amino acids present in DMEM. Cells were then infected with wild type or ICPO-virus to determine plating efficiency as described herein.
Cells were then infected with wild type or ICPO-virus to determine plating efficiency as described herein.
A. Ile deprivation and serum starvation. DMEM was prepared by dissolving all components individually, except Ile and Gln, in water according to Invitrogen's formulation for DMEM (catalog #11965) with 3 substitutions: 200 mg/l calcium chloride (anhydrous) for 264.92 mg/l calcium chloride dihydrate, 48 mg/l L-cystine for 63 mg/l L-cystine dihydrochloride, and 72 mg/l L-tyrosine for 104 mg/l L-tyrosine disodium salt, dihydrate. Medium was sterilized by passage through a 0.22 μm filter. Ile and Gln were added as needed, not more than two days prior to use, at final concentrations of 0.802 or 2 mM, respectively.
Sixty-mm petri plates were seeded with 5×10^5 cells/plate and incubated 24 h at 37° C. For Ile deprivation experiments, medium was removed and monolayers were washed with warm Hanks' Balanced Salt Solution (HBSS) (37° C.) and overlaid with 4 ml warm Ile-free DMEM with 10% dialyzed FBS and 0 or 2 mM Gln. For serum starvation experiments, medium was removed and monolayers were washed with warm HBSS and overlaid with 4 ml warm serum-free DMEM with 0.802 mM Ile and 0 or 2 mM Gln. Monolayers in Ile- or serum-free media were incubated 42 h at 37° C. Media were replaced with warm DMEM containing 10% non-dialyzed FBS, 0.802 Ile, and 2 mM Gln. At 3-h intervals monolayers were infected with wild-type or ICP0-viruses to determine plating efficiency or analyzed for cellular DNA content by flow cytometry as described below.
Infections to determine plating efficiency. Vero cell monolayers in 35-, 60-, and 100-mm plates were infected with volumes of 200 μl, 400 μl, or 2 ml/plate, respectively, with 5, 10, 20, 40, or 100 PFU/plate. For all experiments except Ile deprivation and serum starvation, titers were determined on 24-h-old Vero cell monolayers that had been seeded at a concentration of 1.5×10^5 Vero cells/35-mm plate and incubated at 37° C. […] Plates were incubated at 37° C. and shaken every 15 minutes for 1 h. Two, 4, or 10 ml of DMEM containing 5% FBS and 0.5% methyl cellulose was added to 35-, 60-, and 100-mm plates, respectively, and monolayers were incubated 3-5 days at 37° C. to allow plaques to form. Medium was aspirated, cells were stained with crystal violet, and plaques were counted.

Another test concerns HSV. As to conditions: presence of L-lysine; cited from earlier work.
Test [1] relates to wild-type virus latent in mouse trigeminal ganglia. The experiment in a line: Mouse ocular/trigeminal ganglia (TG) cell culture model of reactivation from latency. Format: cell-based, HSV-1. The protocol:
(For details on the model, see, for example, Leib et al., J. Virol. 63:759-768 (1989), Halford et al., J. Virol. 74:5957-5967. (2000), and Halford et al., J. Virol. 75:3240-3249 (2001)). For this experiment, mice were infected with the wild-type virus and 30 days later the trigeminal ganglia (TG) were removed and incubated in 3 24-well plates in medium containing acyclovir (ACV). As indicated below the x-axis of FIG. 16, on day 7 the acyclovir was removed. On day 11, 1 24-well plate was treated by: washing once with HBSS and replacing with Gln-free medium supplemented with 10% dialyzed FBS (red); washing once with HBSS and replacing with Gln-containing medium supplemented with 10% dialyzed FBS (green); or 3-hour incubation at 43° C. followed by replacement of medium with fresh medium (blue). On day 13, Gln-free and Gln-containing medium with dialyzed FBS was replaced with medium containing Gln and 10% normal FBS. On day 16, the 2 plates not previously heat shocked were incubated for 3 hours at 43° C. followed by replacement of medium with fresh medium. Starting on day 10, 10% of the volume of each well was transferred daily to 1 well of a 96-well plate previously seeded with Vero cells. After incubation at 37° C. for 7 days, monolayers of Vero cells in the 96-well plates were examined by light microscopy for cytopathic effect. […]

The next test concerns HSV-1 (KOS strain). The experiment in a line: Heat-stress reactivation of latent HSV in mice treated with glutamine (Example 5). The test is classed as in vivo, mouse. The settings on record: intraperitoneally or orally, heat stress 43° C. water 10 minutes. The procedure: The strain of HSV and the method of propagation can be as described in Example 1.
The mice can be infected by, e.g., the topical ocular route, and the establishment of a corneal infection can be documented by slit lamp examination and ocular swabs on day 3 after infection. Only animals which are successfully infected are retained for use in these experiments. Thirty days after infection, groups of latently infected and uninfected mice are treated with the glutamine composition. […] The mice are treated one day before heat stress and the day of the heat stress.
The glutamine composition can be given intraperitoneally in some groups of mice and orally in others. This treatment can be continued on the day the animals are heat stressed by immersion into 43° C. water for 10 minutes. Twenty-four hours after the hyperthermic stress, the eyes are swabbed to culture any infectious virus, and the mice killed to collect the trigeminal ganglia. Ocular swabs are incubated in culture medium which is then transferred to Vero cell monolayers in 96 well culture plates. Units of infectious herpesvirus are recorded as units of cytopathic effect over a period of seven days. […] The units of cytopathic effect are recorded over a seven day incubation period. […]

Test [2] relates to ICP0 promoter-CAT. The experiment in a line: Promoter-CAT expression in Vero cells after Ile deprivation/refeeding. The test is classed as cell-based, HSV-1. The settings on record: 0-6 hours post-release. The protocol: (§1) Vero cells and NB41A3 cells (mouse neuroblastoma cells) were treated by Ile deprivation/refeeding as in the previous experiment. The expression of viral gene promoters was then analyzed. Promoter-chloramphenicol acetyltransferase (CAT) expression from plasmids was measured following transfection of Vero cells treated by Ile-deprivation/refeeding. ICP0 and ICP4 promoter-CAT expression increased 6- or 4-fold, respectively, at early times (0-6 hours post-release) then decreased through 10 hours post-release. In cells from the mouse neuroblastoma cell line, NB41A3, ICP0, ICP4, and ICP22/47 promoter-CAT expression was increased 6-, 10-, or 5-fold, respectively.

Test [3] concerns ICP4 promoter-CAT. The test is described as above. Format: cell-based, HSV-1. As to conditions: 0-6 hours post-release. The protocol: as §1
Test [4] has as its system ICP0 promoter-CAT. The experiment in a line: Promoter-CAT expression in NB41A3 cells after Ile deprivation/refeeding. The test is classed as cell-based, HSV-1. As to conditions: NB41A3 mouse neuroblastoma cells. The procedure:
as §1

The next test has as its system ICP22/47 promoter-CAT. The test is described as above. Format: cell-based, HSV-1. As to conditions: NB41A3 mouse neuroblastoma cells. The procedure:
as §1

In test [5] the test system is ICP4 promoter-CAT. Described as above. The test is classed as cell-based, HSV-1. The settings on record: NB41A3 mouse neuroblastoma cells. The protocol: as §1
For the next test, the system named is ICP0^− (7134) virus. As to conditions: Ile-free medium 42 hours, refeeding; first 8 h post-release; cited from earlier work.
Another test deals with wt (KOS) virus. The settings on record: Ile-free medium 42 hours, refeeding; all time points; cited from earlier work.

The structures appear in SMILES notation. Entries after “also recorded” stand apart in the source; their conditions may differ.

For the molecule `NCCCC[C@H](N)C(=O)O` [lysine, L-lysine], the “effect of deprivation/refeeding on plating efficiency of ICP0- virus” value with ICP0^− virus (n212) is “slight enhancement; also recorded: slight increase”. In the test on ICP0^− virus (n212) (separate experiment), the “enhancement of plating efficiency of ICP0- virus by deprivation/refeeding” value is on record as 2-3 fold. Further, in the test on HSV, the “replication efficiency of HSV in cell culture” value is given as “decrease the replication efficiency”.
On to `N=C(N)NCCC[C@H](N)C(=O)O` [arginine], for which the “effect of combined arginine and methionine deprivation on plating efficiency of ICP0- virus” value in the test with ICP0^− virus (n212) is given as “synergistic effect”.
Turning to `CSCC[C@H](N)C(=O)O` [methionine], the “effect of combined arginine and methionine deprivation on plating efficiency of ICP0- virus” value in the test with ICP0^− virus (n212) is recorded as “synergistic effect”.
With `NC(=O)CC[C@H](N)C(=O)O` [glutamine], the “reactivation of wild-type virus from latency (wells positive for cytopathic effect)” value is “reactivated more rapidly and to the same extent as heat-shocked TG” in [1] (TG incubated in 0 mM Gln (FIG. 16)); “significantly reduced reactivation” in test [1] (TG incubated in the presence of 2 mM Gln (FIG. 16)). In addition, the “units of infectious herpesvirus on the ocular surface vs untreated heat-stressed animals” value in the test with HSV-1 (KOS strain) was “statistically significantly lower units of infectious herpesvirus”.
Regarding `CC[C@H](C)[C@H](N)C(=O)O` [isoleucine], the “effect of deprivation/refeeding on plating efficiency of ICP0- virus” value in the test with ICP0^− virus (n212) is reported as “little or no effect”. Moreover, the “increase of ICP0 promoter-CAT expression” value with ICP0 promoter-CAT [2] and with ICP0 promoter-CAT [4] was 6 fold each time. Also, the results for the “increase of ICP4 promoter-CAT expression” value in the test with ICP4 promoter-CAT [3] and in the test on ICP4 promoter-CAT [5] were 4 fold and 10 fold, respectively. The “increase of ICP22/47 promoter-CAT expression” value in the test on ICP22/47 promoter-CAT was determined as 5 fold. Besides, the “increase in number of plaques produced by the ICP0- virus” value in the test with ICP0^− (7134) virus is given as 6 fold. The “number of plaques produced by wild type virus” value in the test on wt (KOS) virus is “same number of plaques at all time points tested”.
